Our source for the GI50 and TGI values is PubChem BioAssay (NCI).

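48-hour exposure; five concentrations; linearly interpolated endpoints. Abbreviation: GI50, concentration required for 50% inhibition of growth. The concentration for full growth arrest is given as TGI.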

Test systems include SNB-19 CNS; UACC-62 melanoma; ACHN renal; M14 melanoma; HOP-92 NSCLC; MOLT-4 leukemia; LOX IMVI melanoma; SF-539 CNS; NCI-H460 lung; T-47D breast.
Holding throughout (assay): NCI-60 cell line screen, 48 h

For `O=C1C(Cl)=C(Nc2cccc(C(F)(F)F)c2)C(=O)N1Cc1ccc(Cl)cc1`, the GI50 is 6.37 µM in the assay on SNB-19 CNS; 0.421 µM in the assay with ACHN renal; 1.34 µM in the assay on M14 melanoma; 15 µM in the assay on HOP-92 NSCLC; 0.119 µM with MOLT-4 leukemia; 0.241 µM in the assay on LOX IMVI melanoma. Besides, the GI50 in the assay on SF-539 CNS is 0.128 µM; in the assay with NCI-H460 lung it was below 0.0461 µM; with T-47D breast, 2.11 µM. Further, the TGI in the assay on SNB-19 CNS is 24.1 µM; in the assay on UACC-62 melanoma it was 1.26 µM; with ACHN renal, 15.1 µM; with M14 melanoma, 18.5 µM; in the assay with HOP-92 NSCLC, 33.1 µM; with MOLT-4 leukemia it was above 100 µM. Besides, the TGI is 5.15 µM in the assay on LOX IMVI melanoma, 2.09 µM in the assay on SF-539 CNS, 13.3 µM with NCI-H460 lung and 30.8 µM in the assay on T-47D breast.

On to `Cn1cc(C2=C(N3CCOCC3)C(=O)NC2=O)c2ccccc21`, for which the GI50 in the assay with SNB-19 CNS is above 25 µM; in the assay with UACC-62 melanoma, above 25 µM; with ACHN renal, above 25 µM; with M14 melanoma, above 25 µM; in the assay on HOP-92 NSCLC, 14.7 µM; in the assay with MOLT-4 leukemia, above 25 µM. For the same molecule, the GI50 in the assay with LOX IMVI melanoma, in the assay on SF-539 CNS, in the assay on NCI-H460 lung and in the assay with T-47D breast was above 25 µM in each case. Further, the TGI in the assay with SNB-19 CNS, with UACC-62 melanoma, in the assay on ACHN renal, in the assay with M14 melanoma, with HOP-92 NSCLC and with MOLT-4 leukemia was above 25 µM in each case. The TGI with LOX IMVI melanoma, in the assay on SF-539 CNS, with NCI-H460 lung and in the assay on T-47D breast was above 25 µM each time.

With `CN(C)CCCn1c(-c2nonc2N)nc2cnccc21`, the GI50 in the assay on SNB-19 CNS was above 25 µM; with UACC-62 melanoma it was above 25 µM; with ACHN renal, above 25 µM; in the assay with M14 melanoma, above 25 µM; in the assay with HOP-92 NSCLC it was 1.96 µM; in the assay with MOLT-4 leukemia it was above 25 µM. The GI50 in the assay on LOX IMVI melanoma, in the assay on SF-539 CNS, with NCI-H460 lung and in the assay with T-47D breast was above 25 µM throughout. Further, the TGI in the assay with SNB-19 CNS, in the assay on UACC-62 melanoma, in the assay on ACHN renal, with M14 melanoma, with HOP-92 NSCLC and in the assay with MOLT-4 leukemia was above 25 µM throughout. For the same molecule, the TGI with LOX IMVI melanoma, with SF-539 CNS, in the assay on NCI-H460 lung and in the assay with T-47D breast was above 25 µM each time.

For `COc1ccc(Cn2cc3c(c2-c2cc(OC)c(OC)c(OC)c2)CCc2cnoc2-3)cc1`, the GI50 is 0.502 µM in the assay on SNB-19 CNS; 0.342 µM in the assay on UACC-62 melanoma; 0.849 µM in the assay on ACHN renal; 0.216 µM in the assay on M14 melanoma; above 21.4 µM in the assay on HOP-92 NSCLC; 0.468 µM in the assay with MOLT-4 leukemia. Besides, the GI50 in the assay with LOX IMVI melanoma was 0.813 µM; in the assay on SF-539 CNS, 0.283 µM; in the assay on NCI-H460 lung, 0.332 µM; with T-47D breast, 0.82 µM. The TGI was above 100 µM in the assay on SNB-19 CNS; above 23 µM in the assay on UACC-62 melanoma; above 100 µM in the assay with ACHN renal; 0.87 µM with M14 melanoma; above 100 µM with HOP-92 NSCLC; above 100 µM in the assay with MOLT-4 leukemia. The TGI is above 100 µM with LOX IMVI melanoma, 2.39 µM with SF-539 CNS, 1.88 µM in the assay on NCI-H460 lung and above 100 µM in the assay on T-47D breast.

Regarding `Cc1cc(C(=O)c2ccccc2)c(C)c2c1[nH]c1ccc(Cl)cc12`, the GI50 in the assay with SNB-19 CNS is 0.0541 µM; with UACC-62 melanoma, 0.0399 µM; with ACHN renal, 0.0669 µM; in the assay on M14 melanoma, 0.0456 µM; in the assay with HOP-92 NSCLC, 1.71 µM; with MOLT-4 leukemia, 0.103 µM. Moreover, the GI50 was 0.0642 µM in the assay on LOX IMVI melanoma, 0.0415 µM in the assay on SF-539 CNS, 0.041 µM in the assay on NCI-H460 lung and 0.0447 µM in the assay with T-47D breast. Also, the TGI was 35.1 µM in the assay with SNB-19 CNS; 18.7 µM in the assay with UACC-62 melanoma; 15.5 µM in the assay on ACHN renal; above 41.7 µM with M14 melanoma; 21.2 µM with HOP-92 NSCLC; above 54.2 µM in the assay with MOLT-4 leukemia. The TGI with LOX IMVI melanoma is 10.3 µM; in the assay on SF-539 CNS it was 0.799 µM; in the assay on NCI-H460 lung, 14.7 µM; in the assay with T-47D breast, above 87.2 µM.

Turning to `COC(=O)C(C)NC(=O)c1ccccc1I(OS(=O)(=O)C(F)(F)F)c1ccccc1` (centres undefined), the GI50 was 26.3 µM in the assay with SNB-19 CNS; 17.3 µM in the assay on UACC-62 melanoma; 19.2 µM in the assay with ACHN renal; 1.23 µM in the assay with M14 melanoma; 3.66 µM with HOP-92 NSCLC; 42.3 µM with MOLT-4 leukemia. For the same molecule, the GI50 is 22.5 µM in the assay with LOX IMVI melanoma, 22.7 µM with SF-539 CNS, 20.4 µM in the assay with NCI-H460 lung and 36.3 µM in the assay with T-47D breast. In addition, the TGI in the assay with SNB-19 CNS is above 65.4 µM; with UACC-62 melanoma it was 35 µM; in the assay on ACHN renal, 36.4 µM; in the assay with M14 melanoma, 32.8 µM; in the assay on HOP-92 NSCLC, 21.6 µM; with MOLT-4 leukemia, above 85.1 µM. In addition, the TGI was above 60.6 µM in the assay on LOX IMVI melanoma, 45.6 µM in the assay with SF-539 CNS, 59.1 µM in the assay on NCI-H460 lung and above 100 µM in the assay with T-47D breast.

As to `Cc1ccc([C@]2(C)CC[C@H](C)/C2=C\Br)c(O)c1`, the GI50 in the assay on SNB-19 CNS is 4.6 µM; with UACC-62 melanoma, 3.71 µM; in the assay on ACHN renal, 7.5 µM; with M14 melanoma, 3.51 µM; with HOP-92 NSCLC, 10.4 µM; in the assay on MOLT-4 leukemia, 4.17 µM. Moreover, the GI50 in the assay with LOX IMVI melanoma is 8.21 µM; in the assay with SF-539 CNS, 1.85 µM; in the assay with NCI-H460 lung, 4.23 µM; in the assay on T-47D breast, 6.45 µM. The TGI in the assay with SNB-19 CNS stood at 18.9 µM; with UACC-62 melanoma, 14.1 µM; in the assay on ACHN renal, 26.1 µM; in the assay with M14 melanoma, 13.3 µM; in the assay on HOP-92 NSCLC, 25.2 µM; with MOLT-4 leukemia, 16.8 µM. Also, the TGI with LOX IMVI melanoma came to 22.3 µM; with SF-539 CNS, 4.17 µM; with NCI-H460 lung, 16.5 µM; in the assay on T-47D breast, 27.9 µM.
